Target: human Nav1.7 (Homo sapiens (Human), UniProt Q15858)
Test: FLIPR or FLIPR TETRA sodium dye assay for sodium channel blocking activity
Type: cell-based
Conditions: recombinant HEK293 cells expressing human Nav1.7
Method: In vitro assays were performed in a recombinant cell line expressing cDNA encoding the alpha subunit (Nav1.7, SCN9a, PN1, NE) of human Nav1.7 (Accession No. NM_002977). The cell line was provided by investigators at Yale University (Cummins et al, J. Neurosci. 18(23): 9607-9619 (1998)). For dominant selection of the Nav1.7-expressing clones, the expression plasmid co-expressed the neomycin resistance gene. The cell line was constructed in the human embryonic kidney cell line, HEK293, under the influence of the CMV […] promoter, and stable clones were selected using limiting dilution cloning and antibiotic selection using the neomycin analogue, G418. Recombinant beta and gamma subunits were not introduced into this cell line. Additional cell lines expressing recombinant Nav1.7 cloned from other species can also be used, alone or in combination with various beta subunits, gamma subunits or chaperones.
Unless otherwise noted, cell culture reagents were purchased from Mediatech of Herndon, Va. The recombinant Nav1.7/HEK293 cells were routinely cultured in growth medium consisting of Dulbecco's […] essential medium containing 10% fetal bovine serum (FBS, Hyclone, Thermo Fisher Scientific, Logan, Utah), 100 U/mL penicillin, 100 μg/mL streptomycin, 2-4 mM L-glutamine, and […] G418. For natural, non-recombinant cell lines, the selective antibiotic was omitted, and additional media formulations can be applied as needed.
The final buffer consisted of 20 mM Hepes, pH 7.3, 1.261 mM CaCl2, 0.493 mM MgCl2, 0.407 mM Mg(SO)4, 5.33 mM KCl, 0.441 mM KH2PO4, 137 mM NaCl, 0.336 mM Na2HPO4 and […] D-glucose (Hanks et al., Proc. Soc. Exp. Biol. Med. 71:196 (1949)), and the simple formulation was typically the basic buffer throughout the assay (i.e., all wash and addition steps).
The fluorescence indicator used in the primary fluorescence assay was the cell permeant version of CoroNa™ Green (Invitrogen, Molecular Probes, Eugene, Oreg.), a dye that emits light in the fluorescence range (Harootunian et al., J. Biol. Chem. 264(32):19458-19467 (1989)). The intensity of this emission, but not the wavelength range, is increased when the dye is exposed to Na^+ ions, which it can bind with partial selectivity. Cells expressing Nav1.7 or other sodium channels were loaded with the CoroNa™ Green dye immediately in advance of the fluorescence assay, and then, after agonist stimulation, the mobilization of Na^+ ions was detected as the Na^+ ions flowed from the extracellular fluid into the cytoplasm through the activated sodium channel pores. The dye was stored in the dark as a lyophilized powder, and then an aliquot was dissolved immediately before the cell loading procedure, according to the instructions of the manufacturer, to a stock concentration of 10 mM in DMSO. It was then diluted in the assay buffer to a 4× concentrated working solution, so that the final concentration of dye in the cell loading buffer was 5 μM.
In the fluorescence assays, two agonists were used in combination, namely 1) veratridine; and 2) the venom from the yellow scorpion, Leiurus quinquestriatus hebraeus. Veratridine is an alkaloid small molecule that facilitates the capture of channel openings by inhibiting inactivation, and the scorpion venom is a natural preparation that includes peptide toxins selective for different subsets of voltage-gated sodium channels. These scorpion toxins inhibit the fast inactivation of their cognate target channels. Stock solutions of the agonists were prepared to 40 mM in DMSO (veratridine) and 1 mg/mL in dH2O (scorpion venom), and then diluted to make a 4× or 2× stock (depending on the particular assay) in assay buffer, the final concentration being 100 μM (veratridine) and 10 μg/mL (scorpion venom). Both of the agonists were purchased from Sigma Aldrich, St. Louis, Mo.
Test compounds were dissolved in DMSO to yield 10 mM stock solutions. […]

Chain of human Nav1.7 (Q15858 other isoform, or with tags, fused parts or gaps): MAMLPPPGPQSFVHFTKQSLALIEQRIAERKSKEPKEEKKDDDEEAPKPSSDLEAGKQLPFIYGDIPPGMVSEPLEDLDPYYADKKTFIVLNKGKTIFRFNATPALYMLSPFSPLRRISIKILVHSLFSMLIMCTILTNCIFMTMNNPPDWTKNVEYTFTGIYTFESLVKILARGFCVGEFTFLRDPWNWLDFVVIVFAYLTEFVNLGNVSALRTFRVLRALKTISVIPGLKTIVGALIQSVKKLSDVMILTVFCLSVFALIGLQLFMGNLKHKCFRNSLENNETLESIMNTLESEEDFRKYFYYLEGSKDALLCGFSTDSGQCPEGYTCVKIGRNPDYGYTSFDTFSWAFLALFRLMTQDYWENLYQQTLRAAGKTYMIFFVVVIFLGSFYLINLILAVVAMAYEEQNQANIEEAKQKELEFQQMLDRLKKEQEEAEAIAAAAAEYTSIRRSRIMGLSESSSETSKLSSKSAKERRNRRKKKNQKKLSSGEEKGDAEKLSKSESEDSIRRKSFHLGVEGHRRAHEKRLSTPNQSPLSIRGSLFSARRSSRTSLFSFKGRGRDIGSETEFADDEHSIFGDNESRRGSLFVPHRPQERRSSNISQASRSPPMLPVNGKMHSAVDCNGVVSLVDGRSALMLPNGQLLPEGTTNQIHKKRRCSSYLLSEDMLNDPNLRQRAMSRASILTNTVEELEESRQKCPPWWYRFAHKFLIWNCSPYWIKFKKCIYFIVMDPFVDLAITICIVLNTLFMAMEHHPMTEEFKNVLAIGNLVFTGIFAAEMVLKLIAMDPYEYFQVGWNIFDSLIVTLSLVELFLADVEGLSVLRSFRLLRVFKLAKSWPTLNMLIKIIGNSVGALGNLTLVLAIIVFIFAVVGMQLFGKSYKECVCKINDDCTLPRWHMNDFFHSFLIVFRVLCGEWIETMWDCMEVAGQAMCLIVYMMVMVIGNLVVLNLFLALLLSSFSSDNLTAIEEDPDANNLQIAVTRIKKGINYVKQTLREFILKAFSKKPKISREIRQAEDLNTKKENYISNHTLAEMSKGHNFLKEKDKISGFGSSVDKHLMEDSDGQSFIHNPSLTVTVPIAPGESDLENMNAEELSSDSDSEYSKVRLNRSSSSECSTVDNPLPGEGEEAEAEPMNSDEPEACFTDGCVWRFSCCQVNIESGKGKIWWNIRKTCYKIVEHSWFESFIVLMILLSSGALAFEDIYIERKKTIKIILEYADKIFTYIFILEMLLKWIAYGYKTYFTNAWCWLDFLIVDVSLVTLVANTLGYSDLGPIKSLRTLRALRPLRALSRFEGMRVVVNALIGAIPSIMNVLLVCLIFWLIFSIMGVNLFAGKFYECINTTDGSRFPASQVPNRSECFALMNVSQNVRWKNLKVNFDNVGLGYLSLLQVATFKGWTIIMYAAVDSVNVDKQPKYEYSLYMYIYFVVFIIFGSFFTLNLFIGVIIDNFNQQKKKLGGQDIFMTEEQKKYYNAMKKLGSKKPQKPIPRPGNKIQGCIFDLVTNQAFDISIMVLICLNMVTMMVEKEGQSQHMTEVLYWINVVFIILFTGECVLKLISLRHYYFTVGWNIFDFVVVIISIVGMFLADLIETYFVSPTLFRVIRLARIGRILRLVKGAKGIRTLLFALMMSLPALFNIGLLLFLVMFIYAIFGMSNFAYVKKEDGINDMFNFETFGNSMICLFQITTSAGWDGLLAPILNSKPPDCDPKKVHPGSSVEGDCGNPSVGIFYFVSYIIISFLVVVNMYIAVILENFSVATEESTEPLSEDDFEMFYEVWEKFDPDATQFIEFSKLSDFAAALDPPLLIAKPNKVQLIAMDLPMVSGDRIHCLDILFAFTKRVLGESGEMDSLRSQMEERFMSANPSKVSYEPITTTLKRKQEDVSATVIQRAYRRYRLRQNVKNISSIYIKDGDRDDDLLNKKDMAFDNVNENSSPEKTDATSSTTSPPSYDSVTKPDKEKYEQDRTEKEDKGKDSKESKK

Question: How did the IC50 turn out when `NC(=O)c1cccc(-c2ccc3[nH]ccc3c2)n1` [Compound 29, 6-(1H-indol-5-yl)picolinamide] was run?
Answer: The IC50 was greater than 20 µM.

Question: With `O=C(Nc1ccc(C(F)(F)F)cc1)c1cccc(-c2ccc3[nH]ccc3c2)n1` [Compound 32, 6-(1H-indol-5-yl)-N-(4-(trifluoromethyl)phenyl)picolinamide] as the compound, how does the IC50 read?
Answer: Its IC50 is 0.233 ± 0.035 µM.

Question: `O=C(c1cccc(-c2ccc3[nH]ccc3c2)n1)N(c1ccc(C(F)(F)F)cc1)c1ccc(C(F)(F)F)cc1` [Compound 33, 6-(1H-indol-5-yl)-N,N-bis(4-(trifluoromethyl)phenyl)picolinamide] was tested. Which IC50 did it give?
Answer: The IC50 was greater than 20 µM.

Question: For `C[C@H](Nc1cc(C(N)=O)nc(-c2ccc3[nH]ccc3c2)n1)C(N)=O` [Compound 35, (S)-6-((1-amino-1-oxopropan-2-yl)amino)-2-(1H-indol-5-yl)pyrimidine-4-carboxamide], which IC50 is on record?
Answer: Its IC50 is greater than 20 µM.

Question: `NC(=O)c1cc(N[C@H]2CCNC2=O)nc(-c2ccc3[nH]ccc3c2)n1` [Compound 36, (S)-2-(1H-indol-5-yl)-6-((2-oxopyrrolidin-3-yl)amino)pyrimidine-4-carboxamide] was tested. Which IC50 did it give?
Answer: The IC50 was greater than 20 µM.

Question: With `NC(=O)c1cc(O[C@H]2CCNC2=O)nc(-c2ccc3[nH]ccc3c2)n1` [Compound 37, (S)-2-(1H-indol-5-yl)-6-((2-oxopyrrolidin-3-yl)oxy)pyrimidine-4-carboxamide] as the compound, how does the IC50 read?
Answer: The IC50 was greater than 20 µM.

Question: For `COc1ccc(-c2nc3cc(-c4nc(N[C@H]5CCNC5=O)cc(C(N)=O)n4)ccc3n2-c2ccc(F)cc2)c(OC)c1` [Compound 42, (S)-2-(2-(2,4-dimethoxyphenyl)-1-(4-fluorophenyl)-1H-benzo[d]imidazol-5-yl)-6-((2-oxopyrrolidin-3-yl)amino)pyrimidine-4-carboxamide], which IC50 is on record?
Answer: The IC50 was 2.02 ± 0.146 µM.

Question: For `NC(=O)c1cc(N[C@H]2CCNC2=O)nc(-c2ccc3c(c2)ncn3-c2ccc(C(F)(F)F)cc2)n1` [Compound 45, (S)-6-((2-oxopyrrolidin-3-yl)amino)-2-(1-(4-(trifluoromethyl)phenyl)-1H-benzo[d]imidazol-5-yl)pyrimidine-4-carboxamide], which IC50 is on record?
Answer: Its IC50 is 7.21 ± 0.562 µM.

Question: Which IC50 does the source give for `CC(C)Cn1ccc2cc(-c3nc(N[C@@H](C)C(N)=O)cc(C(N)=O)n3)ccc21` [Compound 47, (S)-6-((1-amino-1-oxopropan-2-yl)amino)-2-(1-isobutyl-1H-indol-5-yl)pyrimidine-4-carboxamide] here?
Answer: Its IC50 is 4.19 ± 0.862 µM.

Question: With `OC[C@H](O)c1ccnc(-c2ccc3ncn(-c4ccc(C(F)(F)F)cc4)c3c2)n1` [Compound 50, (R)-1-(2-(1-(4-(trifluoromethyl)phenyl)-1H-benzo[d]imidazol-6-yl)pyrimidin-4-yl)ethane-1,2-diol] as the compound, how does the IC50 read?
Answer: The IC50 was greater than 20 µM.

Question: `OC[C@@H](O)c1ccnc(-c2ccc3ncn(-c4ccc(C(F)(F)F)cc4)c3c2)n1` [Compound 51, (S)-1-(2-(1-(4-(trifluoromethyl)phenyl)-1H-benzo[d]imidazol-6-yl)pyrimidin-4-yl)ethane-1,2-diol] was tested. Which IC50 did it give?
Answer: The IC50 was 3.51 ± 0.733 µM.

Question: Which IC50 does the source give for `NC(=O)c1cccc(-c2ccc3c(ccn3Cc3ccc(C(F)(F)F)cc3)c2)n1` [Compound 56, 6-(1-(4-(trifluoromethyl)benzyl)-1H-indol-5-yl)picolinamide] here?
Answer: The IC50 was 0.23 ± 0.026 µM.

Question: For `NC(=O)c1cccc(-c2ccc3c(ccn3S(=O)(=O)c3ccc(C(F)(F)F)cc3)c2)n1` [Compound 57, 6-(1-((4-(trifluoromethyl)phenyl)sulfonyl)-1H-indol-5-yl)picolinamide], which IC50 is on record?
Answer: The IC50 was 0.658 ± 0.078 µM.

Question: For `NC(=O)c1cccc(-c2ccc3c(ccn3CC3CCCCC3)c2)n1` [Compound 58, 6-(1-(cyclohexylmethyl)-1H-indol-5-yl)picolinamide], which IC50 is on record?
Answer: The IC50 was 0.237 ± 0.062 µM.

Question: For `NC(=O)c1cccc(-c2ccc3c(ccn3S(=O)(=O)C3CCCCC3)c2)n1` [Compound 59, 6-(1-(cyclohexylsulfonyl)-1H-indol-5-yl)picolinamide], which IC50 is on record?
Answer: The IC50 was 0.927 ± 0.05 µM.

Question: How did the IC50 turn out when `NC(=O)c1cccc(-c2ccc3c(ccn3Cc3ccc(F)cc3)c2)n1` [Compound 61, 6-(1-(4-fluorobenzyl)-1H-indol-5-yl)picolinamide] was run?
Answer: The IC50 was 0.801 ± 0.052 µM.

Question: Which IC50 does the source give for `Cc1ccc(Cn2ccc3cc(-c4cccc(C(N)=O)n4)ccc32)cc1` [Compound 62, 6-(1-(4-methylbenzyl)-1H-indol-5-yl)picolinamide] here?
Answer: The IC50 was greater than 20 µM.

Question: `NC(=O)c1cccc(-c2ccc3c(ccn3CCC3CCCCC3)c2)n1` [Compound 63, 6-(1-(2-cyclohexylethyl)-1H-indol-5-yl)picolinamide] was tested. Which IC50 did it give?
Answer: The IC50 was 1.12 ± 0.182 µM.

Question: `NC(=O)c1cccc(-c2ccc3c(ccn3Cc3ccncc3)c2)n1` [Compound 64, 6-(1-(pyridin-4-ylmethyl)-1H-indol-5-yl)picolinamide] was tested. Which IC50 did it give?
Answer: Its IC50 is greater than 20 µM.

Question: For `NC(=O)c1cccc(-c2ccc3c(ccn3CCN3CCOCC3)c2)n1` [Compound 65, 6-(1-(2-morpholinoethyl)-1H-indol-5-yl)picolinamide], which IC50 is on record?
Answer: The IC50 was greater than 20 µM.

Question: For `Cc1noc(C)c1Cn1ccc2cc(-c3cccc(C(N)=O)n3)ccc21` [Compound 66, 6-(1-((3,5-dimethylisoxazol-4-yl)methyl)-1H-indol-5-yl)picolinamide], which IC50 is on record?
Answer: The IC50 was 5.55 ± 0.376 µM.

Question: With `CC(C)Cn1ccc2cc(-c3cccc(C(N)=O)n3)ccc21` [Compound 67, 6-(1-isobutyl-1H-indol-5-yl)picolinamide] as the compound, how does the IC50 read?
Answer: The IC50 was 0.308 ± 0.078 µM.

Question: `Cc1nc(Cn2ccc3cc(-c4cccc(C(N)=O)n4)ccc32)cs1` [Compound 68, 6-(1-((2-methylthiazol-4-yl)methyl)-1H-indol-5-yl)picolinamide] was tested. Which IC50 did it give?
Answer: Its IC50 is 10 to 20 µM.

Question: For `Cn1ccc2cc(-c3cccc(C(=O)Nc4ccc(C(F)(F)F)cc4)n3)ccc21` [Compound 75, 6-(1-methyl-1H-indol-5-yl)-N-(4-(trifluoromethyl)phenyl)picolinamide], which IC50 is on record?
Answer: Its IC50 is 3.03 ± 0.837 µM.

Question: How did the IC50 turn out when `O=C(NC1CCCCC1)c1cccc(-c2ccc3[nH]ccc3c2)n1` [Compound 76, N-cyclohexyl-6-(1H-indol-5-yl)picolinamide] was run?
Answer: Its IC50 is 0.167 ± 0.02 µM.

Question: How did the IC50 turn out when `O=C(Nc1ccc(C(F)(F)F)cc1)c1cccc(-c2ccc3[nH]ncc3c2)n1` [Compound 77, 6-(1H-indazol-5-yl)-N-(4-(trifluoromethyl)phenyl)picolinamide] was run?
Answer: The IC50 was 2.7 ± 0.524 µM.

Question: With `C[C@H](Nc1cc(C(=O)Nc2ccc(C(F)(F)F)cc2)nc(-c2ccc3occc3c2)n1)C(N)=O` [Compound 79, (S)-6-((1-amino-1-oxopropan-2-yl)amino)-2-(benzofuran-5-yl)-N-(4-(trifluoromethyl)phenyl)pyrimidine-4-carboxamide] as the compound, how does the IC50 read?
Answer: The IC50 was greater than 20 µM.

Question: For `C[C@H](Nc1cc(C(=O)Nc2ccc(C(F)(F)F)cc2)nc(-c2ccc3[nH]ccc3c2)n1)C(N)=O` [Compound 80, (S)-6-((1-amino-1-oxopropan-2-yl)amino)-2-(1H-indol-5-yl)-N-(4-(trifluoromethyl)phenyl)pyrimidine-4-carboxamide], which IC50 is on record?
Answer: Its IC50 is greater than 20 µM.

Question: How did the IC50 turn out when `O=C(Nc1ccc(C(F)(F)F)cc1)c1cccc(-c2ccc3occc3c2)n1` [Compound 81, 6-(benzofuran-5-yl)-N-(4-(trifluoromethyl)phenyl)picolinamide] was run?
Answer: Its IC50 is 0.782 ± 0.044 µM.

Question: Which IC50 does the source give for `O=C(NCC1CCCCC1)c1cccc(-c2ccc3[nH]ccc3c2)n1` [Compound 83, N-(cyclohexylmethyl)-6-(1H-indol-5-yl)picolinamide] here?
Answer: Its IC50 is 0.18 ± 0.031 µM.

Question: `O=C(c1cccc(-c2ccc3[nH]ccc3c2)n1)N1CCCC1` [Compound 84, (6-(1H-indol-5-yl)pyridin-2-yl)(pyrrolidin-1-yl)methanone] was tested. Which IC50 did it give?
Answer: Its IC50 is greater than 20 µM.

Question: With `O=C(NC1CCCC1)c1cccc(-c2ccc3[nH]ccc3c2)n1` [Compound 85, N-cyclopentyl-6-(1H-indol-5-yl)picolinamide] as the compound, how does the IC50 read?
Answer: Its IC50 is 1.21 ± 0.242 µM.

Question: For `CC1CN(C(=O)c2cccc(-c3ccc4[nH]ccc4c3)n2)CC(C)O1` (stereo not shown) [Compound 86, (6-(1H-indol-5-yl)pyridin-2-yl)(2,6-dimethylmorpholino)methanone], which IC50 is on record?
Answer: Its IC50 is greater than 20 µM.

Question: With `O=C(Nc1nnn[nH]1)c1cccc(-c2ccc3[nH]ccc3c2)n1` [Compound 87, 6-(1H-indol-5-yl)-N-(1H-tetrazol-5-yl)picolinamide] as the compound, how does the IC50 read?
Answer: The IC50 was greater than 20 µM.
